Laboratory results from patent US9815794B2, “Inhibition of bacterial biofilms and microbial growth with imidazole derivatives” (North Carolina State University, priority 2011, dated 2017).
≈ marks a conversion by molar mass, not a printed value. Where two headings read alike, the source gives them in different places.

What was measured:
[1] = tested on: MDRAB; experiment: Broth microdilution MIC; assay type: cell-based
Experimental: (§1) Once it was determined that this specific 4,5-disubstitution pattern imparted microbicidal activity onto the 2-AI framework, this activity was quantified by measuring the MIC of each derivative against a variety of representative pathogenic bacterial strains using the microdilution protocol (CSLI, Performance Standards for Antimicrobial Suceptibility Testing; Nineteenth Informational Supplement, Clinical and Laboratory Standards Institute, Wayne, Pa., 2009). E. coli, MDRAB, P. aeruginosa, MRSA, MSSA, S. epidermidis and VRE were used for initial evaluation. From this screen, compound 15 was determined to be the lead compound and had MIC values (μg/mL) of 2, 2, 1, 0.5, 0.25, and 1 against E. coli, MDRAB, MRSA, VRE, S. Epidermidis and MSSA.
(§2) S. aureus (ATCC #29213), S. epidermidis (ATCC #29886), MRSA (ATCC # BAA-44), MDRAB (ATCC # BAA-1605), vancomycin resistant Enterococcus faecium (VRE) (ATCC #51559) and E. coli (ATCC #35695) were obtained from the ATCC. Mechanically difibrinated sheep blood (DSB100) was obtained from Hemostat Labs. Mueller-Hinton medium was purchased from Fluka (#70192).
(§3) Broth Microdilution Method for MIC Determination.

[2] = tested on: E. coli; experiment: Broth microdilution MIC; assay type: cell-based; details: Escherichia coli
Experimental: as §1, §2, §3

[3] = tested on: S. epidermidis; experiment: Broth microdilution MIC; assay type: cell-based
Experimental: as §1, §2, §3

[4] = tested on: Rhodospirillum salexigens; experiment: Marine bacteria microdilution MIC; details: Rhodothalassium salexigens, R. salexigens
[5] = tested on: Vibrio vulnificus; experiment: Marine bacteria microdilution MIC; details: Vibrio vulnificus, V. vulnificus
[6] = tested on: MDRAB; experiment: Biofilm formation inhibition, crystal violet reporter assay; assay type: cell-based
Experimental: (§4) The ability of each member of the pilot library to inhibit either E. coli or MDRAB biofilm formation at 100 μM was assessed using a crystal violet reporter assay (O'Toole et al., Mol. Microbiol., 1998, 30: 295-304).

[7] = tested on: Listonella anguillarum; experiment: Marine bacteria microdilution MIC; details: Vibrio anguillarum, L. anguillarum
[8] = tested on: E. coli; experiment: Biofilm formation inhibition, crystal violet reporter assay; assay type: cell-based; details: Escherichia coli, 100 μM
Experimental: as §4
This is typically indicative of biofilm inhibition via a traditional microbicidal mechanism instead of a mechanism that modulates biofilm formation through non-microbicidal mechanisms. […] At this concentration, a 97% reduction in bacterial growth was observed.

[9] = tested on: Vibrio cholerae; experiment: Marine bacteria microdilution MIC; assay type: cell-based; details: Vibrio cholerae, V. cholerae
[10] = tested on: MRSA; experiment: Broth microdilution MIC; assay type: cell-based, methicillin-resistant S. aureus; details: Staphylococcus aureus
Experimental: as §1, §2, §3

[11] = tested on: MSSA; experiment: Broth microdilution MIC; assay type: cell-based, S. aureus; details: Staphylococcus aureus
Experimental: as §1, §2, §3

[12] = tested on: VRE; experiment: Broth microdilution MIC; assay type: cell-based, vancomycin resistant Enterococcus faecium; details: Enterococcus
Experimental: as §1, §2, §3

[13] = tested on: all of the test strains; experiment: Antibiotic activity (MIC) of control 2-aminoimidazoles against the test strains; assay type: cell-based
Experimental: To examine the necessity of the 4,5-disubstitution pattern for antimicrobial activity of the 2-aminoimidazole scaffold, two monosubstituted 2-aminoimidazole analogues of compound 19 were synthesized and screened alongside the parent 2-aminoimidazole for antibiotic activity (Scheme 2). Heptanoic acid and phenylhexanoic acid were treated with oxalyl chloride with catalytic dimethyl formamide in dichloromethane to produce the respective acid chlorides, which were then reacted with diazomethane and quenched with hydrobromic acid to make the respective alpha-bromo ketones. These alpha-bromo ketones were separately cyclized with boc-guanidine, providing a boc-protected 2-aminoimidazole scaffold that was subsequently deprotected upon treatment with trifluoroacetic acid in dichloromethane to yield 22 and 23.
as §3

[14] = Staphylococcus epidermidis, read-out: MIC

Structure (SMILES)	MIC [1] [µg/mL]	MIC [2] [µg/mL]	MIC [3, 14] [µg/mL]	MIC [4] [µg/mL]	MIC [5] [µg/mL]	inhibition at 100 µM [6] [%]	MIC [7] [µg/mL]	inhibition at 100 µM [8] [%]	MIC [9] [µg/mL]	MIC [10] [µg/mL]	MIC [11] [µg/mL]	MIC [12] [µg/mL]	antibiotic activity ([13]; highest concentration tested (36 μg/mL), every bacterial strain)	MIC ([13]; Staphylococcus epidermidis, all of the test strains except for S. epidermidis) [µg/mL]	MIC [3] [µg/mL]	antibiotic activity ([13]; any of the test strains except for S. epidermidis)
Cc1[nH]c(N)nc1CCCCCc1ccccc1 [Compound 11, 5-methyl-4-(5-phenylpentyl)-1H-imidazol-2-amine]	8 (≈ 32.9 µM)	8 (≈ 32.9 µM)	1 (≈ 4.11 µM)	7 (≈ 28.8 µM)	13.9 (≈ 57.1 µM)	> 99	13.9 (≈ 57.1 µM)	96.3 ± 0.08	27.9 (≈ 115 µM)	4 (≈ 16.4 µM)	2 (≈ 8.22 µM)	8 (≈ 32.9 µM)	–	–	–	–
CCc1[nH]c(N)nc1CCCCCc1ccccc1 [Compound 12, 5-ethyl-4-(5-phenylpentyl)-1H-imidazol-2-amine]	32 (≈ 124 µM)	16 (≈ 62.2 µM)	2 (≈ 7.77 µM)	14.7 (≈ 57.1 µM)	29.4 (≈ 114 µM)	94.5 ± 0.2	14.7 (≈ 57.1 µM)	> 99	29.4 (≈ 114 µM)	8 (≈ 31.1 µM)	4 (≈ 15.5 µM)	8 (≈ 31.1 µM)	–	–	–	–
CCCc1[nH]c(N)nc1CCCCCc1ccccc1 [Compound 13, 4-(5-phenylpentyl)-5-propyl-1H-imidazol-2-amine]	8 (≈ 29.5 µM)	8 (≈ 29.5 µM)	0.5 (≈ 1.84 µM)	3.85 (≈ 14.2 µM)	3.85 (≈ 14.2 µM)	87.8 ± 0.3	7.7 (≈ 28.4 µM)	95.8 ± 1.5	15.4 (≈ 56.7 µM)	4 (≈ 14.7 µM)	4 (≈ 14.7 µM)	4 (≈ 14.7 µM)	–	–	–	–
CCCCc1[nH]c(N)nc1CCCCCc1ccccc1 [Compound 14, 5-butyl-4-(5-phenylpentyl)-1H-imidazol-2-amine]	4 (≈ 14 µM)	4 (≈ 14 µM)	0.25 (≈ 0.876 µM)	8.05 (≈ 28.2 µM)	4.02 (≈ 14.1 µM)	85.4 ± 0.7	4.02 (≈ 14.1 µM)	96.9 ± 1.1	8.05 (≈ 28.2 µM)	2 (≈ 7.01 µM)	2 (≈ 7.01 µM)	2 (≈ 7.01 µM)	–	–	–	–
Nc1ncc[nH]1 [Compound 21, 2-aminoimidazole, reference compound]	–	–	–	–	–	–	–	–	–	–	–	–	no antibiotic activity	–	–	–
CCCCCCc1c[nH]c(N)n1.Cl [Compound 22, 4-hexyl-1H-imidazol-2-amine hydrochloride]	–	–	0.04	–	–	–	–	–	–	–	–	–	–	> 41	–	–
Cl.Nc1nc(CCCCCc2ccccc2)c[nH]1 [Compound 23]	–	–	–	–	–	–	–	–	–	–	–	–	–	–	0.05	no notable antibiotic activity
